Assay [1] concerns wild-type ERα and ERα LBD mutants Y537S, Y537N, Y537C, D538G. Briefly: ERE-luciferase reporter assay in Caov2 and SKBR3 cells (statements on all receptors). The format is cell-based. The procedure: ExSite mutagenesis was performed using the corresponding primers as summarized in Table 1 below on a pENTR2B ERα WT construct using Pfu ultra taq polymerase. The primers were PNK phosphorylated. Following PCR amplification, the products were digested with DpnI at 37° C. for 1 hr, followed by overnight ligation at 16° C. Ligated products were transformed into DH5α bacterial cells and grown on kanamycin resistant plates. The pENTR clones were verified by sequencing and then swapped into the pcDNA-DEST vector using the Gateway system (Invitrogen) for expression analysis.
Caov2 ovarian carcinoma cells were grown in RPMI-1640 media (Gibco) supplemented with 8% Fetal Bovine Serum (FBS), Sodium Pyruvate (NaPyr) and non-essential amino acids (NEAA) and passaged every 2-3 days. SKBR3 breast adenocarcinoma cells were grown in DMEM media (Gibco) supplemented with 8% Fetal Bovine Serum (FBS), Sodium Pyruvate (NaPyr) and non-essential amino acids (NEAA) and passaged every 2-3 days. […]
Caov2 cells were co-transfected with the 7X-TK-ERE-TATA luciferase reporter gene (Nagel et al., Endocrinology 142(11): 4721-4728 (2001)) and expression constructs for either wild-type or mutant receptors using Fugene transfection reagent (Promega). […] Following 24 hours of treatment, cells were lysed and the luciferase and β-gal assays were performed as described previously (Norris et al., J Biol Chem 270(39): 22777-22782 (1995)) and the plates were read on the Fusion α-FP HT plate reader (PerkinElmer Life Sciences).
See Jeselsohn et al., Nature Reviews Clinical Oncology 12(10): 573-583 (2015); Jeselsohn et al., Clinical Cancer Research 20(7): 1757-1767 (2014); Robinson et al., Nature Genetics 45(12): 1446-1451(2013); Thomas and Gustafsson, Trends in Endocrinology and Metabolism 26(9): 467-476 (2015); and Toy et al., Nature Genetics 45(12): 1439-1445 (2013). The activity of these mutants was evaluated in a reconstituted estrogen response element (ERE)-luciferase reporter assay in Caov2 ovarian carcinoma cells and SKBR3 breast adenocarcinoma cells. […]
On the technique in general: A reporter such as luciferase makes a cellular process visible.

Assay [2] concerns MCF7 D538G. Briefly: Mammary intraductal (MIND) xenograft model, MCF7 D538G. The format is in vivo, NSG mice. As to the method: MCF7 cells were engineered with CRISPR/Cas9 to express ERα with Y537S and D538G mutations. To mimic the natural environment of infiltrating ductal ERα^+ breast cancers, NSG™ mice were injected, via the nipple in the inguinal mammary glands, with three MCF7 cell variants: wild type MCF7 cells (MCF7 WT), MCF7 cells expressing Y537S mutant ERα (MCF7 Y537S), and MCF7 cells expressing D538G mutant ERα (MCF7 D538G), respectively. Prior to injection, the MCF7 cells were labeled with a luciferase reporter to monitor tumor growth in vivo using a Xenogen IVIS imager. […] FIG. 4 summarizes the experimental design.

For assay [3], the target named is T1, ERα wild-type LBD (Homo sapiens, UniProt P03372, C381S/C417S/C530S/L536S).
T1 construct: 6x-His-TEV (N, cleaved yes); made in house; host or cells: E. coli BL21(DE3)
T1 sequence (P03372 311-547 C381S/C417S/C530S/L536S limits assumed): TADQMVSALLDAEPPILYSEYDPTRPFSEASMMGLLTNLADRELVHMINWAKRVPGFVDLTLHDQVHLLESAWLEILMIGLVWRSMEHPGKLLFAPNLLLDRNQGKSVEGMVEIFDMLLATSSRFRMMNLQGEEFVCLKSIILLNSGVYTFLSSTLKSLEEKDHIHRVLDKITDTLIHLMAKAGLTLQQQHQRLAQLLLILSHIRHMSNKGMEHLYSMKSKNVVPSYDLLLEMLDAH
Briefly: X-ray crystal structure of ligand-bound ERα wild-type LBD (L536S). As to the method: 6x-His-TEV-Estrogen receptor alpha ligand binding domain containing C381S, C417S, C530S with L536S or Y537S mutations were expressed in E. coli BL21(DE3). The L536S mutant stabilizes the wild-type antagonist conformation and Y537S is an activating somatic mutation that has been identified in patients with acquired hormone resistance. Both proteins were purified using Ni-NTA resin, the 6x-His tag was cleaved using tev protease, removed using Ni-NTA resin, and a final purification was performed by passing the protein over a size exclusion column. The main peak was concentrated to 10 mg/mL and flash frozen.
Hanging drop vapor diffusion was used to crystallize the complexes. The L536S-Laso (lasofoxifene-bound ERα wild-type LBD) complex formed clear hexagonal crystals in 25% PEG 8,000, 200 mM MgCl2, HEPES pH 7.5 after two weeks at room temperature. The Y537S-Laso (lasofoxifene-bound ERα Y537S mutant LBD) complex formed rectangular crystals in 20% PEG 3.35K, 200 mM MgCl2, HEPES pH 6.5 after one week at room temperature.
Crystals were cryo-protected in 25% glycerol in mother liquor and flash frozen in liquid nitrogen. All x-ray crystallographic data sets were collected at the Advanced Photon Source. The L536S-Laso complex diffracted to 1.8 Å and the Y537S-Laso complex diffracted to 2.1 Å by cc^1/2 over 50%. Phaser was used for molecular replacement with 5UFX as the model. […]

On to `Oc1ccc2c(c1)CC[C@H](c1ccccc1)[C@@H]2c1ccc(OCCN2CCCC2)cc1` [Lasofoxifene, lasofoxifene], for which the “inhibition of the transcriptional activity of the ERα mutants” value in assay [1] (all tested ERα LBD mutants, in presence of 1 nM 17-β estradiol, Caov2 and SKBR3 cells) is “effectively inhibited the transcriptional activity of all tested ERα LBD mutants in a dose-response manner”. Besides, the “response of mutants to inhibitory action compared with WT receptor” value in assay [1] (each mutant versus WT receptor) is “reduced response”. For the same compound, in assay [2] (MCF7 D538G mice, 10 mg/kg five times per week subcutaneous), the “tumor growth monitored by total flux” value was “most significantly inhibited”. Moreover, the “tumor weight, compared to fulvestrant” value in assay [2] (MCF7 D538G, 5 mg/kg and 10 mg/kg, after 70 days) is “significantly more effective”. Also, the “tumor growth measured by tumor weight, compared to vehicle control” value in assay [2] (MCF7 D538G, 10 mg/kg, after 70 days of treatment) is recorded as “significantly inhibited”. Besides, the liver metastasis result in assay [2] (MCF7 D538G, all tested doses (1, 5, 10 mg/kg), after 70 days) is given as “effective in reducing liver metastasis at all tested doses”. In assay [3], the “loop between helix 11 and helix 12 in the crystal structure” value is “does not disrupt the loop between helix 11 and helix 12”.

The values are drawn from patent publication US11974983B2 (Duke University, priority 2018, dated 2024).
